Values after ≈ are worked out from the molar mass of the structure shown. Numbered stars: 1 amine (or outer) side, 2 acyl side, 3 side chain; on linkers, the order of the positions; unused ones are H or OH. Square brackets hold non-standard residues; d marks the D form. Peptide text beside a SMILES is read from it. X1 = Cc1nc([C@@H](Cc2ccccc2)N[*:1])c(C(=O)[*:2])s1; Orn = NCCC[C@H](N)C(=O)O
Assays:
Staphylococcus aureus [1] = experiment: Antibacterial activity against Staphylococcus aureus ATCC 49975 after 16 to 20 hrs by broth microdilution method; format: functional
Escherichia coli [2] = experiment: Antibacterial activity against Escherichia coli ATCC 25922; format: functional
[3] = Therapeutic index, ratio of HD100 for hemolytic activity in human erythrocytes to MIC against Staphylococcus aureus ATCC 29213; format: toxicity, cell-based; details: read-out: TI
Pseudomonas aeruginosa [4] = experiment: Antibacterial activity against Pseudomonas aeruginosa ATCC 27853; format: functional
Enterococcus faecalis [5] = experiment: Antibacterial activity against Enterococcus faecalis ATCC 29212; format: functional
Staphylococcus aureus [6] = experiment: Antibacterial activity against Staphylococcus aureus ATCC 29213; format: functional
[7] = Therapeutic index, ratio of HD100 for hemolytic activity in human erythrocytes to MIC against Pseudomonas aeruginosa ATCC 27853; format: toxicity, cell-based; details: read-out: TI
Erythrocyte = experiment: (§1) Haemolytic activity in human erythrocytes; format: ADME, cell-based; details: erythrocyte
[8] = Therapeutic index, ratio of HD100 for hemolytic activity in human erythrocytes to MIC against Escherichia coli ATCC 25922; format: toxicity, cell-based; details: read-out: TI
[9] = Therapeutic index, ratio of HD100 for hemolytic activity in human erythrocytes to MIC against Enterococcus faecalis ATCC 29212; format: toxicity, cell-based; details: read-out: TI
Enterococcus faecalis [10] = experiment: Antibacterial activity against Enterococcus faecalis ATCC 29212 after 24 hrs; format: functional; details: ATCC 29212, 24 h
Pseudomonas aeruginosa [11] = experiment: Antibacterial activity against Pseudomonas aeruginosa ATCC 27853 incubated for 24 hrs; format: functional; details: ATCC 27853, 24 h
Bacillus cereus = experiment: Antibacterial activity against Bacillus cereus ATCC 11778 incubated for 24 hrs; format: functional; details: ATCC 11778, 24 h
[12] = test system: Staphylococcus epidermidis; experiment: Antibacterial activity against Staphylococcus epidermidis ATCC 12228 incubated for 24 hrs; format: functional; details: ATCC 12228, 24 h
Escherichia coli [13] = experiment: Antibacterial activity against Escherichia coli ATCC 25922 after 24 hrs; format: functional; details: ATCC 25922, 24 h
Staphylococcus aureus [14] = experiment: Antibacterial activity against Staphylococcus aureus ATCC 29213 after 24 hrs; format: functional; details: ATCC 29213, 24 h
[15] = Hemolytic activity in sheep erythrocytes; format: ADME, cell-based, Ovis aries, Erythrocyte
Staphylococcus aureus [16] = experiment: Antibacterial activity against Staphylococcus aureus ATCC 6538 incubated for 48 hrs; format: functional; details: ATCC 6538, 48 h
Escherichia coli [17] = experiment: Antibacterial activity against Escherichia coli ATCC 8739 incubated for 48 hrs; format: functional; details: ATCC 8739, 48 h
Bacillus subtilis [18] = experiment: Antibacterial activity against Bacillus subtilis CIP 52.65 incubated for 48 hrs; format: functional; details: CIP 52.65, 48 h
[19] = Haemolytic activity in human erythrocytes at 100 ug/ml after 30 mins relative to control; format: ADME, cell-based, Erythrocyte; details: read-out: Activity
Pseudomonas aeruginosa [20] = experiment: Antibacterial activity against Pseudomonas aeruginosa ATCC 9027 incubated for 48 hrs; format: functional; details: ATCC 9027, 48 h
Staphylococcus aureus [21] = experiment: Antibacterial activity against Staphylococcus aureus NBRC 12732; format: functional
Escherichia coli [22] = experiment: Antibacterial activity against Escherichia coli NBRC 12734; format: functional
Pseudomonas aeruginosa [23] = experiment: Antibacterial activity against Pseudomonas aeruginosa NBRC 3080; format: functional
Bacillus subtilis [24] = experiment: Antibacterial activity against Bacillus subtilis NBRC 3513; format: functional
Priestia megaterium = experiment: Antibacterial activity against Bacillus megaterium ATCC 19213; format: functional
[25] = Haemolytic activity in human RBC after 4 hrs; format: ADME, cell-based, Erythrocyte; details: human red blood cells
[26] = as §1; format: ADME, cell-based, Erythrocyte; details: human erythrocytes

CC(C)C[C@@H]1NC(=O)[C@@H](CCCN)NC(=O)[C@H](C(C)C)NC(=O)c2cccc(c2)/N=N\c2ccc(cc2)CNC(=O)[C@H](CCCN)NC(=O)[C@H](C(C)C)NC(=O)[C@@H]2CCCN2C(=O)[C@@H](Cc2ccccc2)NC1=O
MIC (Staphylococcus aureus [1]): 64 µg/mL (≈ 62.7 µM)

CC(C)C[C@@H]1NC(=O)[C@H](CCCN)NC(=O)[C@H](C(C)C)NC(=O)[C@@H]2CCCN2C(=O)[C@@H](Cc2ccccc2)NC(=O)[C@H](CC(C)C)NC(=O)[C@H](CCCN)NC(=O)[C@H](C(C)C)NC(=O)[C@H](CCCN)NC(=O)[C@H](CC(C)C)NC(=O)[C@H]2CC[C@H](OCc3ccccc3)[C@@H](CNC(=O)[C@H](C(C)C)NC(=O)[C@H](CCCN)NC1=O)O2
MIC (Escherichia coli [2]): 16 µg/mL (≈ 10.1 µM)
selectivity ratio [3]: 15.6
MIC (Pseudomonas aeruginosa [4]): 8 µg/mL (≈ 5.05 µM)
MIC (Enterococcus faecalis [5]): 8 µg/mL (≈ 5.05 µM)
MIC (Staphylococcus aureus [6]): 4 µg/mL (≈ 2.52 µM)
selectivity ratio [7]: 7.8
Activity (Erythrocyte): 62.5 µg/mL
selectivity ratio [8]: 3.9
selectivity ratio [9]: 7.8

CC(C)C[C@@H]1NC(=O)[C@H](CCCN)NC(=O)[C@H](C(C)C)NC(=O)[C@@H]2CCCN2C(=O)[C@@H](Cc2ccccc2)NC(=O)[C@H](CC(C)C)NC(=O)[C@H](CCCN)NC(=O)[C@H](C(C)C)NC(=O)[C@H]2CC[C@H](OCc3ccccc3)[C@@H](CNC1=O)O2
MIC (Enterococcus faecalis [10]): 16 µg/mL (≈ 14 µM)
MIC (Pseudomonas aeruginosa [11]): > 64 µg/mL
MIC (Bacillus cereus): 8 µg/mL (≈ 6.99 µM)
MIC [12]: 8 µg/mL (≈ 6.99 µM)
MIC (Escherichia coli [13]): 32 µg/mL (≈ 28 µM)
MIC (Staphylococcus aureus [14]): 16 µg/mL (≈ 14 µM)

NCCC[C@@H]1NC(=O)[C@H](CCCN)NC(=O)[C@@H]2CCCN2C(=O)[C@@H](Cc2ccccc2)NC(=O)[C@H](CCCN)NC(=O)[C@H](CCCN)NC(=O)[C@H](CCCN)NC(=O)[C@@H]2CCCN2C(=O)[C@@H](Cc2ccccc2)NC(=O)[C@H](CCCN)NC1=O [listing 1 of 2 here]
HC50 [15]: > 200 µg/mL

Cc1nc2c(s1)C(=O)N[C@@H](C(C)C)C(=O)N[C@@H](CCCN)C(=O)N[C@@H](CC(C)C)C(=O)N[C@H](Cc1ccccc1)c1nc(C)sc1C(=O)N[C@@H](C(C)C)C(=O)N[C@@H](CCCN)C(=O)N[C@@H](CC(C)C)C(=O)N[C@@H]2Cc1ccccc1 (cyclo(L[X1]V[Orn]L[X1]V[Orn]))
MIC (Staphylococcus aureus [16]): 4.68 µg/mL (≈ 4.1 µM)
MIC (Escherichia coli [17]): 25 µg/mL (≈ 21.9 µM)
MIC (Bacillus subtilis [18]): 3.12 µg/mL (≈ 2.74 µM)
hemolysis at 0.5 h, 100 ug/ml [19]: 14%
MIC (Pseudomonas aeruginosa [20]): > 50 µg/mL

NCCC[C@@H]1NC(=O)[C@H](CCCN)NC(=O)[C@@H]2CCCN2C(=O)[C@@H](Cc2ccccc2)NC(=O)[C@H](CCCN)NC(=O)[C@H](CCCN)NC(=O)[C@H](CCCN)NC(=O)[C@@H]2CCCN2C(=O)[C@@H](Cc2ccccc2)NC(=O)[C@H](CCCN)NC1=O [listing 2 of 2 here]
MIC (Staphylococcus aureus [21]): 50 µg/mL (≈ 42.6 µM)
MIC (Escherichia coli [22]): > 100 µg/mL
MIC (Pseudomonas aeruginosa [23]): > 100 µg/mL
MIC (Bacillus subtilis [24]): 12.5 µg/mL (≈ 10.7 µM)
MIC (Priestia megaterium): 12.5 µg/mL (≈ 10.7 µM)

NCCC[C@@H]1NC(=O)[C@H](C23CC4CC(CC(C4)C2)C3)NC(=O)[C@H](CCCN)NC(=O)[C@@H]2CCCN2C(=O)[C@@H](Cc2ccccc2)NC(=O)[C@H](CCCN)NC(=O)[C@H](C23CC4CC(CC(C4)C2)C3)NC(=O)[C@H](CCCN)NC(=O)[C@@H]2CCCN2C(=O)[C@@H](Cc2ccccc2)NC1=O
HC50 at 4 h [25]: 107 µg/mL

CC(C)C[C@@H]1NC(=O)[C@H](CCCN)NC(=O)[C@H](C(C)C)NC(=O)[C@@H]2CCCN2C(=O)[C@@H](Cc2ccccc2)NC(=O)[C@H](CC(C)C)NC(=O)[C@H](CCCN)NC(=O)[C@H](C(C)C)NC(=O)C2=CC3=C4CCCC4=C4C=C(SC4(C)C3(C)S2)C(=O)NNC1=O (stereo partly specified)
HC50 [26]: 58 µg/mL

NCCC[C@@H]1NC(=O)[C@H](C23CC4CC(CC(C4)C2)C3)NC(=O)[C@@H]2CCCN2C(=O)[C@@H](Cc2ccccc2)NC(=O)[C@H](C23CC4CC(CC(C4)C2)C3)NC(=O)[C@H](CCCN)NC(=O)[C@H](C23CC4CC(CC(C4)C2)C3)NC(=O)[C@@H]2CCCN2C(=O)[C@@H](Cc2ccccc2)NC(=O)[C@H](C23CC4CC(CC(C4)C2)C3)NC1=O
HC50 at 4 h [25]: 7.55 µg/mL

CC(C)C[C@@H]1NC(=O)[C@@H](CCCN)NC(=O)[C@H](C(C)C)NC(=O)c2cccc(c2)/N=N/c2ccc(cc2)CNC(=O)[C@H](CCCN)NC(=O)[C@H](C(C)C)NC(=O)[C@@H]2CCCN2C(=O)[C@@H](Cc2ccccc2)NC1=O
MIC (Staphylococcus aureus [1]): 256 µg/mL (≈ 251 µM)
